Experimental data: patent publication US9248162B2, “Factor H for treatment of rheumatoid arthritis” (Baxter International Inc., priority 2013, dated 2016)
Several values for one entry are separate records, joined by “and”; a condition that tells them apart may be missing. Equal entries are not always repeated. Marks after values point to notes of the source that are not given here.

What was measured:
Format in all cases: in vivo, Balb C mice
[1] = test system: collagen antibody-induced arthritis; assay: Mouse CAIA: hind paw / footpad volume (swelling, disease burden); design: Mean Disease Burden / Total Disease Burden (AUC) / Hind Limb Volume, Mean Diff. / Total Disease, Mean Diff.: unit not given here; conditions: for % Disease Suppression / Total Disease Burden (AUC): days 8-22
Description: (§1) Balb C mice (n=10 per cohort) were used to determine the efficacy of Factor H (FH) during […]. The mice were treated with ArthritoMAb (anti-collagen) antibody cocktail (2 mg, i.v.) on day 1, followed 7 days later with an injection of LPS (50 μg, i.p.). On day 8, hind paw volumes were measured for each animal and distributed to various treatment groups.
(§2) Factor H was formulated in 20 mM Citrate, 150 mM NaCl, pH=6. […] Ethanercept was formulated as Enbrel™ in saline. Vehicle was formulated in 20 mM Citrate, 150 mM NaCl, pH=6. […] The dosing volume for Factor H and BX12 was 25 mL/kg (0.500 mL/20 g mouse) and adjusted accordingly for body weight.
(§3) Dosing with the different agents was started on day 8 as described in Table 3.
(§4) The age at start date was 7 to 9 weeks. Body weights were measured bi-weekly to the endpoint (Table 4). At the endpoint, tissue samples were processed for histology and submitted to a pathologist for independent analysis. Sampling 1 was performed at the endpoint. The hind limbs were preserved in 10% formalin. Sampling 2 was performed at the endpoint for group 4 animals. Blood was collected by terminal cardiac puncture. The blood was processed for anti-coagulant. The kidneys were additionally preserved in formalin and followed with 70% EtOH. Samples were scored for inflammation, pannus (granulation tissue), cartilage damage, bone resorption and exostosis (Table 5).

[2] = test system: collagen antibody-induced arthritis; assay: Mouse CAIA: clinical score; design: key to Clinical Score, Summary (significance): ns: = not significant; *: = P < 0.05; **: = P < 0.01; ***: = P < 0.001
Description: The mice were treated with ArthritoMAb (anti-collagen) antibody cocktail (2 mg, i.v.) on day 1, followed 7 days later with an injection of LPS (50 μg, i.p.). On day 8, hind paw volumes were measured for each animal and distributed to various treatment groups.
as §2, §3

[3] = Mouse CAIA: body weight and tolerability; conditions: mouse, in vivo
Description: as §1, §3
as §4, with “Hind paw volumes were measured on day 8, 11, 12, 13, 15, 19 and 22 (endpoint). The age” for “The age”

[4] = test system: collagen antibody-induced arthritis; assay: Mouse CAIA: ankle histology scores (H & E); design: key: 0: normal; 1: minimal; 2: mild; 3: moderate; 4: marked; 5: severe; conditions: individual animal, score 0-5, endpoint day 22, listed as Group 3
Description: as §1, §3
as §4, with “Hind paw volumes were measured on day 8, 11, 12, 13, 15, 19 and 22 (endpoint). The age” for “The age”

[5] = test system: collagen antibody-induced arthritis; assay: Mouse CAIA: ankle histology scores (H & E); design: key: 0: normal; 1: minimal infiltration of pannus in cartilage and subchondral bone; 2: mild infiltration; 3: moderate infiltration; 4: marked infiltration; 5: severe infiltration; conditions: individual animal, score 0-5, endpoint day 22, listed as Group 3
Description: as §1, §3
as §4, with “Hind paw volumes were measured on day 8, 11, 12, 13, 15, 19 and 22 (endpoint). The age” for “The age”

[6] = test system: collagen antibody-induced arthritis; assay: Mouse CAIA: ankle histology scores (H & E); design: key: 0: normal; 1: minimal infiltration of inflammatory cells in periarticular tissue; 2: mild infiltration; 3: moderate infiltration with moderate edema; 4: marked infiltration with marked edema; 5: severe infiltration with severe edema; conditions: individual animal, score 0-5, endpoint day 22, listed as Group 3
Description: as §1, §3
as §4, with “Hind paw volumes were measured on day 8, 11, 12, 13, 15, 19 and 22 (endpoint). The age” for “The age”

[7] = test system: collagen antibody-induced arthritis; assay: Mouse CAIA: ankle histology scores (H & E); design: key: 0: normal; 1: minimal to mild loss of staining density with no obvious chondrocyte loss or collagen disruption; 2: mild loss of staining density with focal mild (superficial) chondrocyte loss and/or collagen disruption; 3: moderate loss of staining density with multifocal moderate (depth to middle zone) chondrocyte loss and/or collagen disruption; 4: marked loss of staining density with multifocal marked (depth to deep zone) chondrocyte loss and/or collagen disruption; 5: severe diffuse loss of staining density with multifocal severe (depth to tide mark) chondrocyte loss and/or collagen disruption; conditions: individual animal, score 0-5, endpoint day 22, listed as Group 3
Description: as §1, §3
as §4, with “Hind paw volumes were measured on day 8, 11, 12, 13, 15, 19 and 22 (endpoint). The age” for “The age”

[8] = Vehicle vs agent, Dunnett's Multiple Comparison Test
[9] = Vehicle vs agent, Dunn's Multiple Comparison Test

Substance: Etanercept
- Hind Limb Volume, Mean Diff. [1, 8]: 0.08143
- Hind Limb Volume, Summary (significance) [1, 8]: ** (= P < 0.01)
- Total Disease, Mean Diff. [1, 8]: 1.19
- Total Disease, Summary (significance) [1, 8]: ** (= P < 0.01)
- Hind paw volume ([1]; day 8 of study, group mean, n 10): 0.35 mL
- Hind paw volume ([1]; day 8 of study, individual animal): 0.41 mL and 0.4 mL and 0.38 mL and 0.37 mL and 0.35 mL and 0.34 mL and 0.32 mL and 0.31 mL and 0.3 mL (2×)
- Hind paw volume ([1]; day 11 of study, group mean, n 10): 0.44 mL
- Hind paw volume ([1]; day 11 of study, individual animal): 0.49 mL and 0.44 mL (2×) and 0.37 mL and 0.38 mL and 0.59 mL and 0.4 mL (2×) and 0.45 mL and 0.41 mL
- Hind paw volume ([1]; day 12 of study, group mean, n 10): 0.44 mL
- Hind paw volume ([1]; day 12 of study, individual animal): 0.58 mL and 0.44 mL and 0.35 mL and 0.42 mL and 0.46 mL and 0.49 mL and 0.45 mL and 0.39 mL (2×) and 0.4 mL
- Hind paw volume ([1]; day 13 of study, group mean, n 10): 0.42 mL
- Hind paw volume ([1]; day 13 of study, individual animal): 0.58 mL and 0.41 mL (2×) and 0.36 mL and 0.33 mL and 0.49 mL and 0.39 mL and 0.35 mL and 0.43 mL and 0.4 mL
- Hind paw volume ([1]; day 16 of study, group mean, n 10): 0.38 mL
- Hind paw volume ([1]; day 16 of study, individual animal): 0.45 mL and 0.46 mL and 0.34 mL and 0.37 mL and 0.43 mL and 0.41 mL and 0.33 mL (2×) and 0.32 mL and 0.3 mL
- Hind paw volume ([1]; day 19 of study, group mean, n 10): 0.42 mL
- Hind paw volume ([1]; day 19 of study, individual animal): 0.61 mL and 0.43 mL and 0.4 mL and 0.47 mL (2×) and 0.32 mL and 0.42 mL and 0.35 mL and 0.33 mL and 0.36 mL
- Hind paw volume ([1]; day 22 of study, group mean, n 10): 0.38 mL
- Hind paw volume ([1]; day 22 of study, individual animal): 0.55 mL and 0.41 mL (2×) and 0.34 mL (2×) and 0.39 mL and 0.36 mL (3×) and 0.32 mL
- % Disease Suppression ([1]; group mean, n 10): 61.66%
- Total Disease Burden (AUC) ([1]; group mean, n 10): 0.74
- % Disease Suppression ([1]; individual animal): 16.3% and 74.3% and 109.8% and 81.9% and 52.3% and 49.7% and 69.4% and 70.2% and 29.0% and 63.7%
- Total Disease Burden (AUC) ([1]; individual animal): 1.62 and 0.58 (2×) and −0.19 and 0.35 and 0.92 and 0.97 and 0.59 and 1.37 and 0.70
- Maximum Δ Mean Volume ([1]; difference between mean combined foot pad volumes on day 8 and on median day of maximal swelling, vehicle 0.21): 0.13** ml
- Mean Disease Burden ([1]; group mean AUC of combined footpad volume over baseline, days 8 to 22, vehicle 1.93): 0.74**
- % Disease Suppression (vs Vehicle) ([1]; percent decrease in total disease burden relative to vehicle): 61.7%
- Clinical Score, Difference in rank sum [2, 9]: 3.55
- Clinical Score, Summary (significance) [2, 9]: ns
- Max Clin Score, Mean ([2]; group mean, n=10): 39.60
- Clinical Score, Day of Study 8, Mean ([2]; group mean, n=10, day 8 (start of dosing)): 5.50
- Clinical Score, Day of Study 11, Mean ([2]; group mean, n=10, day 11): 19.60
- Clinical Score, Day of Study 12, Mean ([2]; group mean, n=10, day 12): 37.10
- Clinical Score, Day of Study 13, Mean ([2]; group mean, n=10, day 13): 35.50
- Clinical Score, Day of Study 16, Mean ([2]; group mean, n=10, day 16 (Jul. 1, 2011)): 31.50
- Clinical Score, Day of Study 19, Mean ([2]; group mean, n=10, day 19): 28.40
- Clinical Score, Day of Study 22, Mean ([2]; group mean, n=10, day 22 (endpoint)): 25.70
- Day (of Max Clin Score) ([2]; individual animal, day of study): 12 (8×) and 22 and 16
- Max Clin Score ([2]; individual animal, maximum over days 8 to 22): 32 and 50 (2×) and 45 and 46 and 35 and 30 and 20 and 34 and 52
- Clinical Score, Day of Study 8 ([2]; individual animal, score 0-60, day 8 (start of dosing)): 0 (5×) and 15 and 10 (4×)
- Clinical Score, Day of Study 11 ([2]; individual animal, score 0-60, day 11): 12 (2×) and 34 and 28 and 4 and 15 and 43 and 11 and 10 and 27
- Clinical Score, Day of Study 12 ([2]; individual animal, score 0-60, day 12): 32 and 50 (2×) and 45 and 27 and 35 and 26 and 20 and 34 and 52
- Clinical Score, Day of Study 13 ([2]; individual animal, score 0-60, day 13): 32 and 50 and 45 (2×) and 21 and 35 and 30 and 15 and 34 and 48
- Clinical Score, Day of Study 16 ([2]; individual animal, score 0-60, day 16 (Jul. 1, 2011)): 32 and 49 and 21 and 48 and 25 and 45 and 15 and 10 and 24 and 46
- Clinical Score, Day of Study 19 ([2]; individual animal, score 0-60, day 19): 32 and 48 and 34 and 25 and 5 and 45 and 20 and 10 and 26 and 37
- Clinical Score, Day of Study 22 ([2]; individual animal, score 0-60, day 22 (endpoint)): 32 and 41 and 34 and 16 (2×) and 40 and 19 and 10 and 23 and 26
- Day (of Max Clin Score), Mean ([2]; listed as 'Mean', n=10, day of study): 12.00
- Mean Maximum Clinical Score ([2]; scored from 0 to 60 (15/limb), sum of 4 limbs, vehicle 45.4): 39.6^ns
- Mean Body Weigh at Nadir [3]: −5.7%
- Score From H & E: Bone Resorption [4]: 1 and 3 (3×)
- Score From H & E: Periosteal/Exostotic Changes [4]: 4 (2×) and 3 (2×)
- Score From H & E: Pannus [5]: 4
- Score From H & E: Bone Resorption [6]: 0
- Score From H & E: Cartilage Damage [6]: 0
- Score From H & E: Pannus [6]: 2 (3×) and 0 (5×)
- Score From H & E: Periosteal/Exostotic Changes [6]: 0
- Score From H & E: Cartilage Damage [7]: 1 (3×) and 2 (2×)
